Test results as given in US11066414B2, “Cot modulators and methods of use thereof” (Gilead Sciences, Inc., priority 2015, dated 2021).
pEC50: −log10 of the molar value.

Each compound was assayed on TNFα (assay: Cot Monocyte TNFα Cell Based Assay). Settings: Homo sapiens, Monocyte, read-out: EC50 TNF, LPS-stimulated human monocytes, TNFα.

| Compound | pEC50 |
| --- | --- |
| Cn1ncc2c([C@H](Nc3cc(Cl)c4ncc(C#N)c(NCC(C)(C)C)c4c3)c3cn(C4(C(F)(F)F)CC4)nn3)cccc21 [Example 543, (S)-8-chloro-6-(((1-methyl-1H-indazol-4-yl)(1-(1-(trifluoromethyl)cyclopropyl)-1H-1,2,3-triazol-4-yl)methyl)amino)-4-(neopentylamino)quinoline-3-carbonitrile] | 6.37 |
| Cc1ocnc1[C@H](Nc1cc(Cl)c2ncc(C#N)c(Nc3ccc(F)c(Cl)c3)c2c1)c1cn(C2CCN(C(C)(C)C)CC2)nn1 [Example 263, (S)-6-(((1-(1-(tert-butyl)piperidin-4-yl)-1H-1,2,3-triazol-4-yl)(5-methyloxazol-4-yl)methyl)amino)-8-chloro-4-((3-chloro-4-fluorophenyl)amino)quinoline-3-carbonitrile] | 6.62 |
| CCN1CCC(n2cc([C@@H](Nc3cc(Cl)c4ncc(C#N)c(Nc5ccc(F)c(Cl)c5)c4c3)c3ccc4cccnc4c3)nn2)CC1 [Example 65, (S)-8-chloro-4-((3-chloro-4-fluorophenyl)amino)-6-(((1-(1-ethylpiperidin-4-yl)-1H-1,2,3-triazol-4-yl)(quinolin-7-yl)methyl)amino)quinoline-3-carbonitrile] | 6.27 |
| N#Cc1cnc2c(Cl)cc(N[C@H](c3cn(C4CC4)nn3)c3cnccc3Cl)cc2c1Nc1cnc(F)c(F)c1 [Example 133, (S)-8-chloro-6-(((4-chloropyridin-3-yl)(1-cyclopropyl-1H-1,2,3-triazol-4-yl)methyl)amino)-4-((5,6-difluoropyridin-3-yl)amino)quinoline-3-carbonitrile] | 6.01 |
| N#Cc1cnc2c(Cl)cc(N[C@H](c3c[nH]nn3)c3cccnc3Cl)cc2c1Nc1cnc(F)c(F)c1 [Example 161, (S)-8-chloro-6-(((2-chloropyridin-3-yl)(1H-1,2,3-triazol-4-yl)methyl)amino)-4-((5,6-difluoropyridin-3-yl)amino)quinoline-3-carbonitrile] | 5.78 |
| CC(C)(C)CNc1c(C#N)cnc2c(Cl)cc(N[C@H](c3cn(C4(C(F)(F)F)CC4)nn3)c3cccn4cncc34)cc12 [Example 599, (S)-8-chloro-6-((imidazo[1,5-a]pyridin-8-yl(1-(1-(trifluoromethyl)cyclopropyl)-1H-1,2,3-triazol-4-yl)methyl)amino)-4-(neopentylamino)quinoline-3-carbonitrile] | 6.50 |
| Cn1c(=O)ccc2c([C@H](Nc3cc(Cl)c4ncc(C#N)c(NCC(C)(C)C)c4c3)c3cn(C4(C(F)(F)F)CC4)nn3)cccc21 [Example 789, (S)-8-chloro-6-(((1-methyl-2-oxo-1,2-dihydroquinolin-5-yl)(1-(1-(trifluoromethyl)cyclopropyl)-1H-1,2,3-triazol-4-yl)methyl)amino)-4-(neopentylamino)quinoline-3-carbonitrile] | 6.81 |
| CC(C)(C)N1CCC(n2cc([C@@H](Nc3cc(Cl)c4ncc(C#N)c(Nc5cncc(Cl)c5)c4c3)c3cccnc3)nn2)CC1 [Example 284, (S)-6-(((1-(1-(tert-butyl)piperidin-4-yl)-1H-1,2,3-triazol-4-yl)(pyridin-3-yl)methyl)amino)-8-chloro-4-((5-chloropyridin-3-yl)amino)quinoline-3-carbonitrile] | 5.88 |
| [2H]C(Nc1cc(Cl)c2ncc(C#N)c(N[C@H](CC)c3ccccc3)c2c1)(c1cn(C2CC2)nn1)c1cc(F)cnc1C (stereo partly drawn) [Example 113, 8-chloro-6-(((1-cyclopropyl-1H-1,2,3-triazol-4-yl)(5-fluoro-2-methylpyridin-3-yl)methyl-d)amino)-4-(((R)-1-phenylpropyl)amino)quinoline-3-carbonitrile] | 6.60 |
| CCN1CCC(n2cc(C(Nc3cc(Cl)c4ncc(C#N)c(Nc5ccc(F)c(Cl)c5)c4c3)c3ncccn3)nn2)CC1 (centres unmarked) [Example 367, 8-chloro-4-((3-chloro-4-fluorophenyl)amino)-6-(((1-(1-ethylpiperidin-4-yl)-1H-1,2,3-triazol-4-yl)(pyrimidin-2-yl)methyl)-amino)quinoline-3-carbonitrile] | 6.47 |
| [2H][C@](Nc1cc(Cl)c2ncc(C#N)c(NCC(C)(C)C)c2c1)(c1ccc(F)nc1)c1c[nH]nn1 [Example 135, (S)-8-chloro-6-(((6-fluoropyridin-3-yl)(1H-1,2,3-triazol-4-yl)methyl-d)amino)-4-(neopentylamino)quinoline-3-carbonitrile] | 6.18 |
| Cc1nc(F)ccc1[C@H](Nc1cc(Cl)c2ncc(C#N)c(NCC(C)(C)C)c2c1)c1cn(C2(C(C)(C)C)CC2)nn1 [Example 761, (S)-6-(((1-(1-(tert-butyl)cyclopropyl)-1H-1,2,3-triazol-4-yl)(6-fluoro-2-methylpyridin-3-yl)methyl)amino)-8-chloro-4-(neopentylamino)quinoline-3-carbonitrile] | 7.16 |
| CC(C)(C)CNc1c(C#N)cnc2c(Cl)cc(N[C@H](c3cn(C(C)(C)C(F)F)nn3)c3cccc4ncccc34)cc12 [Example 693, (S)-8-chloro-6-(((1-(1,1-difluoro-2-methylpropan-2-yl)-1H-1,2,3-triazol-4-yl)(quinolin-5-yl)methyl)amino)-4-(neopentylamino)quinoline-3-carbonitrile] | 6.85 |
| Cc1nc(F)ccc1[C@H](Nc1cc(C#N)c2ncc(C#N)c(NCC(C)(C)C#N)c2c1)c1cn(C2(C(F)(F)F)CC2)nn1 [Example 615, (S)-4-((2-cyano-2-methylpropyl)amino)-6-(((6-fluoro-2-methylpyridin-3-yl)(1-(1-(trifluoromethyl)cyclopropyl)-1H-1,2,3-triazol-4-yl)methyl)amino)quinoline-3,8-dicarbonitrile] | 6.23 |
| Cc1nc(F)ccc1[C@H](Nc1cc(Cl)c2ncc(C#N)c(NCC(C)(C)C)c2c1)c1cn(CC(C)(F)F)nn1 [Example 749, (S)-8-chloro-6-(((1-(2,2-difluoropropyl)-1H-1,2,3-triazol-4-yl)(6-fluoro-2-methylpyridin-3-yl)methyl)amino)-4-(neopentylamino)quinoline-3-carbonitrile] | 7.18 |
| N#Cc1cnc2c(Cl)cc(N[C@@H](c3cscn3)c3cn(C4CCNCC4)nn3)cc2c1Nc1ccc(F)c(Cl)c1 [Example 354, (S)-8-chloro-4-((3-chloro-4-fluorophenyl)amino)-6-(((1-(piperidin-4-yl)-1H-1,2,3-triazol-4-yl)(thiazol-4-yl)methyl)amino)-quinoline-3-carbonitrile] | 6.01 |
| Cc1ncoc1[C@H](Nc1cc(Cl)c2ncc(C#N)c(Nc3ccc(F)c(Cl)c3)c2c1)c1cn(C2CCN(C(C)(C)C)CC2)nn1 [Example 265, (R)-6-(((1-(1-(tert-butyl)piperidin-4-yl)-1H-1,2,3-triazol-4-yl)(4-methyloxazol-5-yl)methyl)amino)-8-chloro-4-((3-chloro-4-fluorophenyl)amino)quinoline-3-carbonitrile] | 6.37 |
| CC(C)(C)CNc1c(C#N)cnc2c(C#N)cc(N[C@H](c3cn(C4CC4)nn3)c3cccc4c3CNC4=O)cc12 [Example 76, (S)-6-(((1-cyclopropyl-1H-1,2,3-triazol-4-yl)(1-oxoisoindolin-4-yl)methyl)amino)-4-(neopentylamino)quinoline-3,8-dicarbonitrile] | 6.01 |
| N#Cc1cnc2c(Cl)cc(N[C@@H](c3cnc(F)c(F)c3)c3c[nH]nn3)cc2c1Nc1cnc(F)c(F)c1 [Example 163, (S)-8-chloro-6-(((5,6-difluoropyridin-3-yl)(1H-1,2,3-triazol-4-yl)methyl)amino)-4-((5,6-difluoropyridin-3-yl)amino)quinoline-3-carbonitrile] | 5.38 |
| Cn1ccc2c([C@H](Nc3cc(Cl)c4ncc(C#N)c(NCC(C)(C)C)c4c3)c3cn(C4CC4)nn3)ccnc21 [Example 519, (S)-8-chloro-6-(((1-cyclopropyl-1H-1,2,3-triazol-4-yl)(1-methyl-1H-pyrrolo[2,3-b]pyridin-4-yl)methyl)amino)-4-(neopentylamino)quinoline-3-carbonitrile] | 6.80 |
| Cc1nc(F)ccc1[C@H](Nc1cc(C#N)c2ncc(C#N)c(NC3CCCCC3)c2c1)c1cn(C2(C(F)(F)F)CC2)nn1 [Example 585, (S)-4-(cyclohexylamino)-6-(((6-fluoro-2-methylpyridin-3-yl)(1-(1-(trifluoromethyl)-cyclopropyl)-1H-1,2,3-triazol-4-yl)methyl)amino)quinoline-3,8-dicarbonitrile] | 6.08 |
| Cn1ccc2c([C@H](Nc3cc(C#N)c4ncc(C#N)c(NCC(C)(C)C)c4c3)c3cn(C4(C(F)(F)F)CC4)nn3)ccnc21 [Example 664, (S)-6-(((1-methyl-1H-pyrrolo[2,3-b]pyridin-4-yl)(1-(1-(trifluoromethyl)cyclopropyl)-1H-1,2,3-triazol-4-yl)methyl)amino)-4-(neopentylamino)quinoline-3,8-dicarbonitrile] | 6.81 |

Same assay, conditions: Homo sapiens, Monocyte, read-out: EC50 TNF, LPS-stimulated human monocytes, TNFα TR-FRET

| Compound | pEC50 |
| --- | --- |
| CC(C)(C)CNc1c(C#N)cnc2c(C#N)cc(N[C@H](c3cn(C4(C(F)(F)F)CC4)nn3)c3cccc4c(C#N)nccc34)cc12 [Example 817, (S)-6-(((1-cyanoisoquinolin-5-yl)(1-(1-(trifluoromethyl)cyclopropyl)-1H-1,2,3-triazol-4-yl)methyl)amino)-4-(neopentylamino)quinoline-3,8-dicarbonitrile] | 6.94 |

Same assay, conditions: read-out: EC50 TNF; LPS-stimulated human monocytes, TNFα

| Compound | pEC50 |
| --- | --- |
| CC(C)(C)N1CCC(n2cc([C@@H](Nc3cc(Cl)c4ncc(C#N)c(Nc5ccc(F)c(Cl)c5)c4c3)c3cccnc3)nn2)CC1 [Example 369, (S)-6-(((1-(1-(tert-butyl)piperidin-4-yl)-1H-1,2,3-triazol-4-yl)(pyridin-3-yl)methyl)amino)-8-chloro-4-((3-chloro-4-fluorophenyl)amino)quin-oline-3-carbonitrile] | 7.05 |
| CC(C)(C)N1CCC(n2cc([C@@H](Nc3cc(Cl)c4ncc(C#N)c(Nc5cnc(F)c(F)c5)c4c3)c3cccnc3)nn2)CC1 [Example 208] | 6.33 |

Same assay, conditions: read-out: EC50 TNF; LPS-stimulated human monocytes, TNFα TR-FRET

| Compound | pEC50 |
| --- | --- |
| 6-(((6-fluoro-2-methylpyridin-3-yl)(1-((1- (trifluoromethyl)cyclopropyl)-1H-1,2,3- triazol-4-yl)methyl)amino)-8-(3-hydroxy- 3-methylbutyl-1-yl)-4- (neopentylamino)quinoline-3-carbonitrile [Example 982] | 6.00 |
